# Data published in ChEMBL document CHEMBL1146010, “Synthesis and in vitro antimycobacterial activity of N1-nicotinoyl-3-(4'-hydroxy-3'-methyl phenyl)-5-[(sub)phenyl]-2-pyrazolines” (2006).
# Test system: Mycobacterium tuberculosis
# Test: Antimycobacterial activity against isoniazid-resistant Mycobacterium tuberculosis by agar dilution method
# Format: functional
row,Compound,MIC [µM]
1,Cc1cc(C2=NN(C(=O)c3ccncc3)C(c3cccc([N+](=O)[O-])c3)C2)ccc1O (configuration not stated),7.75
2,COc1ccc(C2CC(c3ccc(O)c(C)c3)=NN2C(=O)c2ccncc2)c(OC)c1OC (configuration not stated),0.87
3,Cc1cc(C2=NN(C(=O)c3ccncc3)C(c3ccco3)C2)ccc1O (configuration not stated),0.58
4,Cc1cc(C2=NN(C(=O)c3ccncc3)C(c3c(Cl)cccc3Cl)C2)ccc1O (configuration not stated),0.23
5,Cc1cc(C2=NN(C(=O)c3ccncc3)C(c3ccc(Cl)cc3)C2)ccc1O (configuration not stated),3.98
6,COc1ccc(C2CC(c3ccc(O)c(C)c3)=NN2C(=O)c2ccncc2)cc1 (configuration not stated),8.05
7,Cc1cc(C2=NN(C(=O)c3ccncc3)C(c3ccccc3)C2)ccc1O (configuration not stated),4.36
8,COc1ccc(C2CC(c3ccc(O)c(C)c3)=NN2C(=O)c2ccncc2)cc1OC (configuration not stated),0.93
9,Cc1cc(C2=NN(C(=O)c3ccncc3)C(c3ccc(N(C)C)cc3)C2)ccc1O (configuration not stated),1.95
10,Cc1cc(C2=NN(C(=O)c3ccncc3)C(c3ccccc3Cl)C2)ccc1O (configuration not stated),0.26
11,Cc1cc(C2=NN(C(=O)c3ccncc3)C(c3ccc(F)cc3)C2)ccc1O (configuration not stated),0.54
12,NNC(=O)c1ccncc1 [ISONIAZID],11.4
